Source: patent US7998972B2, “1H-imidazo[4,5-c]quinoline derivatives in the treatment of protein kinase dependent diseases” (Novartis AG, priority 2002, dated 2011)

Target: PKB/Akt (Homo sapiens, UniProt P31749)
Test: Inhibition of PKB/Akt in vitro
Format: biochemical
Conditions: PDK1-activated GST-PKB, LRRPRTRSFS peptide, 20 μM ATP; read-out: IC50 range class, inhibition of PKB/Akt in vitro
Method: The activity as inhibitor of PKB can be determined as follows:
To fully activate PKB, the enzyme is exposed to catalytic amounts of PDK1. GST-PKB (100 ng, Specific Activity: 0.2 nmoles/mg/mins) is incubated for 30 min at room temperature (rt) with purified recombinant GST-PDK1 (1 ng, SA: 2 nmoles/min/mg). The activation is performed as follows: 0.1 μg of GST-PDK1 (0.05 μl) and 10 μg of GST-PKB (0.45 μl) are mixed in a total volume of 0.75 μl containing 15 μM ATP, 3 mM MgCl2, 20 mM Hepes (pH 7.6) for 30 mins at rt. The reaction is subsequently stopped by adding 0.25 μl containing 30% glycerol (w/w) and 0.06 μl of 500 mM EDTA. 100-500 ng (0.01-0.05 μl) activated GST-PKB is incubated in a final volume of 30 μl with 10 μM of the LRRPRTRSFS peptide, 10 mM Mg-acetate, 50 mM MOPS (PH 7.5), 1 mM DTT and 300 μg/ml BSA, 20 μM ATP (0.1 μCi gamma-^33P-ATP). The reaction is carried out for 30 min at rt in the presence of either 1% DMSO or the text compound of the formula I at the required concentration in 1% DMSO. The reaction is terminated by the addition of 20 μl 125 mM EDTA. 30 ill of each sample is spotted onto P81 Whatman and the paper squares processed as described in Ferrari, S. and Thomas, G. (1991) Meth. Enzymol. 200, 159-169. IC50 values are calculated by linear regression analysis of the percentage inhibition of each compound in duplicate.

PKB/Akt, sequence (P31749 whole entry): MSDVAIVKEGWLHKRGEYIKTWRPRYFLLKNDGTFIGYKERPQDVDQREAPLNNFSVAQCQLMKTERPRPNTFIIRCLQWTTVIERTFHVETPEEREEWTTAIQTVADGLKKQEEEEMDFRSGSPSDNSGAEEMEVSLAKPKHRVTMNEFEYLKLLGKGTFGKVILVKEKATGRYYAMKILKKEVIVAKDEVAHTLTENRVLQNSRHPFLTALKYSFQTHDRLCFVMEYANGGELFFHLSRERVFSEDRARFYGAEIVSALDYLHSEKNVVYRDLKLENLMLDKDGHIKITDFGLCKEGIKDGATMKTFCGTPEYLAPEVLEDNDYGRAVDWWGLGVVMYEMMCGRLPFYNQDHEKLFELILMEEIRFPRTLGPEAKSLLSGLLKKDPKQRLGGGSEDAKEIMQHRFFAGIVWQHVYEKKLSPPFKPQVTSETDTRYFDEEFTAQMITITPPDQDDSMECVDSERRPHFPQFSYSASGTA

IC50	SMILES
1000 to 2000 nM	Fc1ccccc1-n1cnc2cnc3ccc(-c4ccccc4)cc3c21 [Example 54, 1-(2-Fluoro-phenyl)-8-phenyl-1H-imidazo[4,5-c]quinoline]
1000 to 2000 nM	COc1ccc(-c2ccc3ncc4ncn(-c5ccccc5Cl)c4c3c2)cc1 [Example 137, 1-(2-Chloro-phenyl)-8-(4-methoxy-phenyl)-1H-imidazo[4,5-c]quinoline]
